Results published in patent publication US8192962B2, “Processes for detecting toxic substances” (Daikin Industries, Ltd., priority 2001, dated 2012).

Tested on: Energy system protein genes
Test: DNA chip mRNA expression in yeast, energy system protein genes (Table 4)
Type: cell-based, Saccharomyces cerevisiae S288C
Summary of the method: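 Ratios compare mRNA levels in stressed and control S. cerevisiae. Each toxicant was applied for two hours to log-phase cultures at 25° C. at a sub-lethal, growth-inhibiting level; fluorescent cDNA (Cy3- or Cy5-dUTP) was hybridized to a genome-wide yeast chip for over 12 h at 65° C.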

Measured: The level of expressed mRNA in the presence of chemical substance/The level of expressed mRNA in the absence of chemical substance

C=CC=O [(14), acrolein]
1.6: yeast gene YGL191W, cells incubated two hours with the chemical substance | yeast gene YGR174C, cells incubated two hours with the chemical substance | yeast gene YKL016C, cells incubated two hours with the chemical substance | yeast gene YLR038C, cells incubated two hours with the chemical substance | yeast gene YPL088W
0.6: yeast gene YBL099W, cells incubated two hours with the chemical substance | yeast gene YFR053C | yeast gene YGR254W | yeast gene YLR134W, cells incubated two hours with the chemical substance | yeast gene YMR261C, cells incubated two hours with the chemical substance | yeast gene YOL086C, cells incubated two hours with the chemical substance | yeast gene YPL061W, cells incubated two hours with the chemical substance
3.7: yeast gene YDL021W
1.5: yeast gene YDL107W, cells incubated two hours with the chemical substance | yeast gene YDR079W, cells incubated two hours with the chemical substance | yeast gene YDR178W, cells incubated two hours with the chemical substance | yeast gene YDR231C | yeast gene YDR298C, cells incubated two hours with the chemical substance | yeast gene YDR529C, cells incubated two hours with the chemical substance | yeast gene YIL160C | yeast gene YLR345W
0.5: yeast gene YLR044C, cells incubated two hours with the chemical substance | yeast gene YMR205C, cells incubated two hours with the chemical substance
9.3: yeast gene YPL171C
7.5: yeast gene YNL331C
0.7: yeast gene YCL040W | yeast gene YGR087C, cells incubated two hours with the chemical substance | yeast gene YJR121W, cells incubated two hours with the chemical substance | yeast gene YLR304C, cells incubated two hours with the chemical substance | yeast gene YPL240C
1.1: yeast gene YDL174C | yeast gene YDL181W, cells incubated two hours with the chemical substance | yeast gene YEL024W, cells incubated two hours with the chemical substance | yeast gene YJL216C, cells incubated two hours with the chemical substance | yeast gene YNL241C
9.1: yeast gene YOL165C
1.2: yeast gene YBR001C, cells incubated two hours with the chemical substance | yeast gene YDR050C, cells incubated two hours with the chemical substance | yeast gene YGL018C, cells incubated two hours with the chemical substance | yeast gene YGL062W | yeast gene YGR062C, cells incubated two hours with the chemical substance, 25° C., YPD medium | yeast gene YGR244C | yeast gene YIR031C, cells incubated two hours with the chemical substance | yeast gene YLL041C, cells incubated two hours with the chemical substance | yeast gene YLR258W, cells incubated two hours with the chemical substance | yeast gene YLR295C, cells incubated two hours with the chemical substance, 25° C., YPD medium | yeast gene YMR323W, cells incubated two hours with the chemical substance | yeast gene YPL262W, cells incubated two hours with the chemical substance | yeast gene YPR048W, cells incubated two hours with the chemical substance
2.0: yeast gene YMR073C, cells incubated two hours with the chemical substance
0.8: yeast gene YBR221C, cells incubated two hours with the chemical substance | yeast gene YDL078C, cells incubated two hours with the chemical substance | yeast gene YKL060C, cells incubated two hours with the chemical substance | yeast gene YKL148C, cells incubated two hours with the chemical substance | yeast gene YML120C, cells incubated two hours with the chemical substance | yeast gene YNL071W | yeast gene YOR142W, cells incubated two hours with the chemical substance
0.9: yeast gene YAL060W | yeast gene YCR012W | yeast gene YER178W | yeast gene YGL187C, cells incubated two hours with the chemical substance | yeast gene YGL256W, cells incubated two hours with the chemical substance | yeast gene YJL121C, cells incubated two hours with the chemical substance | yeast gene YLR354C, cells incubated two hours with the chemical substance | yeast gene YMR118C | yeast gene YPL031C, cells incubated two hours with the chemical substance | yeast gene YPL276W, cells incubated two hours with the chemical substance
2.1: yeast gene YKR097W | yeast gene YML087C
1.3: yeast gene YBL058W, cells incubated two hours with the chemical substance | yeast gene YCR046C, cells incubated two hours with the chemical substance | yeast gene YJL052W | yeast gene YKR058W, cells incubated two hours with the chemical substance, 25° C., YPD medium | yeast gene YLR284C, cells incubated two hours with the chemical substance | yeast gene YOR388C, cells incubated two hours with the chemical substance | yeast gene YPR184W, cells incubated two hours with the chemical substance
1.4: yeast gene YBR299W | yeast gene YDL067C, cells incubated two hours with the chemical substance | yeast gene YDR377W, cells incubated two hours with the chemical substance | yeast gene YEL039C, cells incubated two hours with the chemical substance | yeast gene YKL141W, cells incubated two hours with the chemical substance | yeast gene YKL150W | yeast gene YML129C, cells incubated two hours with the chemical substance
23.4: yeast gene YFL057C
5.8: yeast gene YHR179W
1.0: yeast gene YDR001C | yeast gene YGL205W, cells incubated two hours with the chemical substance | yeast gene YGR192C | yeast gene YJR009C | yeast gene YKR009C, cells incubated two hours with the chemical substance | yeast gene YMR267W, cells incubated two hours with the chemical substance, 25° C., YPD medium | yeast gene YNL202W, cells incubated two hours with the chemical substance | yeast gene YOR178C, cells incubated two hours with the chemical substance | yeast gene YPL275W, cells incubated two hours with the chemical substance
2.5: yeast gene YJR048W
9.4: yeast gene YJR155W
1.9: yeast gene YCR105W, cells incubated two hours with the chemical substance | yeast gene YJL166W, cells incubated two hours with the chemical substance
4.1: yeast gene YGR043C
1.7: yeast gene YBR185C, cells incubated two hours with the chemical substance | yeast gene YLR395C, cells incubated two hours with the chemical substance
2.9: yeast gene YLR377C, cells incubated two hours with the chemical substance
